Results reported in EP4603105A1, “PHARMACEUTICAL COMPOSITION CONTAINING CYCLIC COMPOUND HAVING SELECTIVE KRAS INHIBITORY EFFECT AGAINST HRAS AND NRAS” (CHUGAI SEIYAKU KABUSHIKI KAISHA, priority 2022, dated 2024).
*1 amine or outer side, *2 acyl side, *3 side chain or, on linkers, in order; H or OH if unused. Where a SMILES comes first, the peptide text is derived from it. Bridges are numbered along the chain shown (N, C = ends). [ ]: non-standard residue; d: D form. The star is where a group is joined. hPhe(3-Cl-4-CF3) = N[C@@H](CCc1ccc(C(F)(F)F)c(Cl)c1)C(=O)O; NPrPhe(4-CF3) = CCCN[C@@H](Cc1ccc(C(F)(F)F)cc1)C(=O)O; NEtPhe(4-CF3) = CCN[C@@H](Cc1ccc(C(F)(F)F)cc1)C(=O)O; X21 = CCCN([C@H](C(=O)[*:2])C1CCCC1)[*:1]; NMeGly(cPent) = CN[C@H](C(=O)O)C1CCCC1; Pro(4,4-F2) = O=C(O)[C@@H]1CC(F)(F)CN1; NEtPhe = CCN[C@@H](Cc1ccccc1)C(=O)O; NMeD = CN[C@@H](CC(=O)O)C(=O)O; NMeL = CN[C@@H](CC(C)C)C(=O)O; Morpholide = C1CN(*)CCO1; NMeA = CN[C@@H](C)C(=O)O; Ac5c = NC1(C(=O)O)CCCC1; Aze = O=C(O)[C@@H]1CCN1; Ac4c = NC1(C(=O)O)CCC1; Aib = CC(C)(N)C(=O)O; Sar = CNCC(=O)O

Columns and labels:
[1] = target: GDP-bound NRAS wild-type protein (Homo sapiens, UniProt P01111); experiment: Binding to NRAS by surface plasmon resonance (SPR), KD and KD ratio to KRAS
GDP-bound NRAS wild-type protein, sequence (P01111 whole entry): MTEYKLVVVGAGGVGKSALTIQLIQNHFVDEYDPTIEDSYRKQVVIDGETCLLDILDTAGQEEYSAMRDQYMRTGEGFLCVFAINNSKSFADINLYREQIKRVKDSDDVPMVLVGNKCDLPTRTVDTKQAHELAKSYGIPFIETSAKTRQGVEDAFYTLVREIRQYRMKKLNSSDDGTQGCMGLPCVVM
Summary of the method: (§1)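 GDP-loaded biotinylated Avi-tag RAS proteins (E. coli-expressed) captured on a Biotin CAPture chip at ~100–300 RU; single-cycle kinetics at 30°C, 100 µL/min, 75 s injections of rising compound concentrations. HBS pH 7.4 running buffer with 1 mM DTT, 10 mM MgCl2, 10 µM GDP, 4% DMSO. KD from 1:1 binding fit.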

HRAS wild-type protein = HRAS wild-type protein (Homo sapiens, UniProt P01112); experiment: Binding to HRAS by surface plasmon resonance (SPR), KD and KD ratio to KRAS
HRAS wild-type protein, sequence (P01112 whole entry): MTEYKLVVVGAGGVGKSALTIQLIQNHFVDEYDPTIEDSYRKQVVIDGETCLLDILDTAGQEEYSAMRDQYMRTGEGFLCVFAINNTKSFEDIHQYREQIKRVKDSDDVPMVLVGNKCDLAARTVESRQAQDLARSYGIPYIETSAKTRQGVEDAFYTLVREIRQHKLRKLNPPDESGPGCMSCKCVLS
Summary of the method: as §1

[2] = tested on: human lung cancer strain NCI-H441; type: cell-based
Summary of the method: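 Readout: […] after the ATP-based reagent. Compound: serial dilutions in dimethyl sulfoxide.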

[3] = ratio of the KD value with respect to GDP-bound NRAS wild-type protein to the KD value with respect to KRAS
[4] = ratio of the KD value with respect to HRAS wild-type protein to the KD value with respect to KRAS
[5] = ratio of KD for GDP-bound NRAS wild-type protein to KD for KRAS
[6] = ratio of KD for HRAS wild-type protein to KD for KRAS
[7] = ratio of KD value for GDP-bound NRAS wild-type protein to KD value for KRAS (SPR)
[8] = ratio of KD value for HRAS wild-type protein to KD value for KRAS (SPR)

Compound | IC50 [2] [nM] | NRAS /KRAS [1, 3] | HRAS /KRAS (HRAS wild-type protein; [4]) | NRAS /KRAS [1, 5] | HRAS /KRAS (HRAS wild-type protein; [6]) | NRAS /KRAS [1, 7] | HRAS /KRAS (HRAS wild-type protein; [8])
C=CCN1CC(=O)N(C)[C@H]2C/C=C\CCN(C2=O)[C@@H](Cc2ccc(C(F)(F)F)cc2)C(=O)N(C)CC(=O)N[C@@H](CCc2cc(F)c(C(F)(F)F)c(F)c2)C(=O)N2C[C@H](OCC)C[C@H]2C(=O)NC2(CC(C)(C)C2)C(=O)N(C)[C@@H](C2CCCC2)C(=O)N(C)[C@H](C(=O)N(C)C)CC(=O)N(C)[C@@H](CCC)C(=O)N[C@@H]([C@@H](C)CC)C1=O [PP2102] | 7 | A (a compound having 10 or more and less than 20 is denoted as A) | A (a compound having 10 or more and less than 20 is denoted as A) |  |  |  | 
CC[C@H](C)[C@@H]1NC(=O)[C@H](COC)N(C)C(=O)C[C@@H](C(=O)N2CCOCC2)N(C)C(=O)[C@H](C2CCCC2)N(C)C(=O)C2(CCCC2)NC(=O)[C@@H]2CC(F)(F)CN2C(=O)[C@H](CCc2cc(F)c(C(F)(F)F)c(F)c2)NC(=O)CN(C)C(=O)[C@H](Cc2ccc(C(F)(F)F)cc2)N2CCCCC[C@@H](C2=O)N(C)C(=O)CN(C)C1=O [PP0846] | 22.2 |  |  | B (a compound having 3 or more and less than 10 is denoted as B) | B (a compound having 3 or more and less than 10 is denoted as B) |  | 
CCO[C@@H]1C[C@H]2C(=O)NC3(CC(F)(F)C3)C(=O)N(C)[C@@H](C(CC)CC)C(=O)N3CCC[C@@H]3CC(=O)N(C)[C@@H](CC3CC3)C(=O)N[C@@H]([C@@H](C)CC)C(=O)N(C)CC(=O)N(C)[C@H]3C/C=C\CCN(C3=O)[C@@H](Cc3ccc(C(F)(F)F)cc3)C(=O)N(C)CC(=O)N[C@@H](CCc3cc(F)c(C(F)(F)F)c(F)c3)C(=O)N2C1 [PP1614] | 54.2 |  |  |  |  | A (a compound having 10 or more and less than 20 is denoted as A) | A (a compound having 10 or more and less than 20 is denoted as A)
CCCN(C)C(=O)[C@@H]1CC(=O)N(C)[C@@H](C2CC2)C(=O)N[C@@H]([C@@H](C)CC)C(=O)N(C)CC(=O)N(C)[C@H]2C/C=C\CCN(C2=O)[C@@H](Cc2ccc(C(F)(F)F)cc2)C(=O)N(C)CC(=O)N[C@@H](CCc2ccc(C(F)(F)F)c(OC)c2)C(=O)N2C[C@H](OCC)C[C@H]2C(=O)NC2(CC(C)(C)C2)C(=O)N(C)[C@@H](C2CCCC2)C(=O)N1C [PP1983] | 20.2 | AA (a compound having 20 or more is denoted as AA) | A (a compound having 10 or more and less than 20 is denoted as A) |  |  |  | 
CCCN1C(=O)CN(C)C(=O)CN(C)C(=O)[C@H]([C@@H](C)CC)NC(=O)[C@H](CC(C)C)N(C)C(=O)C[C@@H](C(=O)N2CCOCC2)N(C)C(=O)[C@H](C2CCCC2)N(C)C(=O)C2(CCCC2)NC(=O)[C@@H]2CCCN2C(=O)[C@H](CCc2ccc(C(F)(F)F)c(Cl)c2)NC(=O)CN(C)C(=O)[C@@H]1C1CCCC1 [PP0061] ([NMeL]I[Sar][Sar][X21][Sar][hPhe(3-Cl-4-CF3)]P[Ac5c][NMeGly(cPent)][NMeD]-Morpholide; lactam N-11) | 84.4 |  |  | B (a compound having 3 or more and less than 10 is denoted as B) | C (A compound having a KD ratio of 0.1 or more and less than 3 is denoted as C) |  | 
CCCN1C(=O)[C@@H]2CCN2C(=O)[C@H](C)N(C)C(=O)[C@H]([C@@H](C)CC)NC(=O)[C@H](CC(C)C)N(C)C(=O)C[C@@H](C(=O)N(C)C)N(C)C(=O)[C@H](C2CCCC2)N(C)C(=O)C2(CCC2)NC(=O)[C@@H]2CC(F)(F)CN2C(=O)[C@H](CCc2ccc(C(F)(F)F)c(Cl)c2)NC(=O)CN(C)C(=O)[C@@H]1Cc1ccc(C(F)(F)F)cc1 [PP0437] ([NMeL]I[NMeA][Aze][NPrPhe(4-CF3)][Sar][hPhe(3-Cl-4-CF3)][Pro(4,4-F2)][Ac4c][NMeGly(cPent)][NMeD]-NMe2; lactam N-11) | 1.2 | C (A compound having a KD ratio of 0.1 or more and less than 3 is denoted as C) | B (a compound having 3 or more and less than 10 is denoted as B) |  |  |  | 
CCO[C@@H]1C[C@H]2C(=O)N(C)C3(CCCC3)C(=O)N(C)[C@@H](C3CCCC3)C(=O)N(C)[C@H](C(=O)N(C)C)CC(=O)N(C)[C@@H](CC)C(=O)N[C@@H]([C@@H](C)CC)C(=O)N3CCC[C@H]3C(=O)N(C)[C@H]3C/C=C\CCN(C3=O)[C@@H](Cc3ccc(C)cc3)C(=O)N(C)CC(=O)N[C@@H](CCc3cc(F)c(C(F)(F)F)c(F)c3)C(=O)N2C1 [PP1810] | 4.6 |  |  |  |  | A (a compound having 10 or more and less than 20 is denoted as A) | B (a compound having 3 or more and less than 10 is denoted as B)
CCCN(C)C(=O)[C@@H]1CC(=O)N(C)[C@@H](COC)C(=O)N[C@@H]([C@@H](C)CC)C(=O)N(C)CC(=O)N(C)[C@H]2C/C=C\CCN(C2=O)[C@@H](Cc2ccc(C(F)(F)F)cc2)C(=O)N(C)CC(=O)N[C@@H](CCc2cc(F)c(C(F)(F)F)c(F)c2)C(=O)N2C[C@H](OCC)C[C@H]2C(=O)NC2(CC(F)(F)C2)C(=O)N(C)[C@@H](C2CCCC2)C(=O)N1C [PP1743] | 5.1 |  |  |  |  | AA (a compound having 20 or more is denoted as AA) | A (a compound having 10 or more and less than 20 is denoted as A)
CCC[C@H]1C(=O)N[C@@H]([C@@H](C)CC)C(=O)N(C)CC(=O)N(C)[C@H]2C/C=C\CCN(C2=O)[C@@H](Cc2ccc(C)cc2)C(=O)N(C)CC(=O)N[C@@H](CCc2cc(F)c(C(F)(F)F)c(F)c2)C(=O)N2C[C@H](OCC)C[C@H]2C(=O)N(C)C2(CCC2)C(=O)N(C)[C@@H](C2CCCC2)C(=O)N(C)[C@H](C(=O)N2CCCCC2)CC(=O)N1C [PP3119] | 3.5 |  |  | A (a compound having 10 or more and less than 20 is denoted as A) | A (a compound having 10 or more and less than 20 is denoted as A) |  | 

Further lines, with some results ahead:

IC50 [2] [nM] | Compound | NRAS /KRAS [1, 3] | HRAS /KRAS (HRAS wild-type protein; [4]) | NRAS /KRAS [1, 5] | HRAS /KRAS (HRAS wild-type protein; [6]) | NRAS /KRAS [1, 7] | HRAS /KRAS (HRAS wild-type protein; [8])
22.7 | CCO[C@@H]1C[C@H]2C(=O)NC3(CCC3)C(=O)N(C)[C@@H](C3CCCC3)C(=O)N(C)[C@H](C(=O)N(C)C)CC(=O)N(C)[C@@H](CC)C(=O)N[C@@H]([C@@H](C)CC)C(=O)N(C)CC(=O)N(C)[C@H]3C/C=C\CCN(C3=O)[C@@H](Cc3ccc(C(F)(F)F)cc3)C(=O)N(C)CC(=O)N[C@@H](CCc3ccc(C(F)(F)F)c(Cl)c3)C(=O)N2C1 [PP0978] |  |  | A (a compound having 10 or more and less than 20 is denoted as A) | B (a compound having 3 or more and less than 10 is denoted as B) |  | 
2.9 | CC[C@H](C)[C@@H]1NC(=O)[C@H](CC(C)C)N(C)C(=O)C[C@@H](C(=O)N2CCOCC2)N(C)C(=O)[C@H](C2CCCC2)N(C)C(=O)C(C)(C)NC(=O)[C@@H]2CCCN2C(=O)[C@H](CCc2ccc(C(F)(F)F)c(Cl)c2)NC(=O)CN(C)C(=O)[C@H](Cc2ccc(C(F)(F)F)cc2)N(CC)C(=O)[C@@H]2CCN2C(=O)[C@H](C)N(C)C1=O [PP0221] ([NMeL]I[NMeA][Aze][NEtPhe(4-CF3)][Sar][hPhe(3-Cl-4-CF3)]P[Aib][NMeGly(cPent)][NMeD]-Morpholide; lactam N-11) |  |  | C (A compound having a KD ratio of 0.1 or more and less than 3 is denoted as C) | C (A compound having a KD ratio of 0.1 or more and less than 3 is denoted as C) |  | 
4.8 | CC[C@H](C)[C@@H]1NC(=O)[C@H](CC(C)C)N(C)C(=O)C[C@@H](C(=O)N2CCOCC2)N(C)C(=O)[C@H](C2CCCC2)N(C)C(=O)C2(CCCC2)NC(=O)[C@@H]2CCCN2C(=O)[C@H](CCc2ccc(C(F)(F)F)c(Cl)c2)NC(=O)CN(C)C(=O)[C@H](Cc2ccccc2)N(CC)C(=O)[C@@H]2CCN2C(=O)[C@H](C)N(C)C1=O [PP0215] ([NMeL]I[NMeA][Aze][NEtPhe][Sar][hPhe(3-Cl-4-CF3)]P[Ac5c][NMeGly(cPent)][NMeD]-Morpholide; lactam N-11) |  |  | C (A compound having a KD ratio of 0.1 or more and less than 3 is denoted as C) | C (A compound having a KD ratio of 0.1 or more and less than 3 is denoted as C) |  | 
5.5 | CC[C@H](C)[C@@H]1NC(=O)[C@H](CC2CC2)N(C)C(=O)C[C@@H](C(=O)N(C)C)N(C)C(=O)[C@H](C2CCCC2)N(C)C(=O)C2(CCC2)NC(=O)[C@@H]2C[C@H](C)CN2C(=O)[C@H](CCc2cc(F)c(C(F)(F)F)c(F)c2)NC(=O)CN(C)C(=O)[C@H](Cc2ccc(C(F)(F)F)cc2)N2CC/C=C\C[C@@H](C2=O)N(C)C(=O)CN(C)C1=O [PP1499] |  |  |  |  | A (a compound having 10 or more and less than 20 is denoted as A) | B (a compound having 3 or more and less than 10 is denoted as B)
11.7 | CC[C@H](C)[C@@H]1NC(=O)[C@H](CC(F)F)N(C)C(=O)C[C@@H](C(=O)N(C)CC)N(C)C(=O)[C@H](C2CCCC2)N(C)C(=O)C2(CC(C)(C)C2)NC(=O)[C@@H]2C[C@H](C)CN2C(=O)[C@H](CCc2ccc(C(F)(F)F)c(Cl)c2)NC(=O)CN(C)C(=O)[C@H](Cc2ccc(C)cc2)N2CC/C=C\C[C@@H](C2=O)N(C)C(=O)CN(C)C1=O [PP1911] | A (a compound having 10 or more and less than 20 is denoted as A) | A (a compound having 10 or more and less than 20 is denoted as A) |  |  |  | 
16 | CCCN(C)C(=O)[C@@H]1CC(=O)N(C)[C@@H](C(C)C)C(=O)N[C@@H]([C@@H](C)CC)C(=O)N(C)CC(=O)N(C)[C@H]2C/C=C\CCN(C2=O)[C@@H](Cc2ccc(C(F)(F)F)cc2)C(=O)N(C)CC(=O)N[C@@H](CCc2cc(F)c(C(F)(F)F)c(F)c2)C(=O)N2C[C@@H](C)C[C@H]2C(=O)NC2(CCC2)C(=O)N(C)[C@@H](C2CCCC2)C(=O)N1C [PP2079] | A (a compound having 10 or more and less than 20 is denoted as A) | A (a compound having 10 or more and less than 20 is denoted as A) |  |  |  | 
